Data published in patent US20110117227A1, “COSMETIC COMPOSITION FOR ANTI-AGING OF THE SKIN COMPRISING PHASEOLUS RADIATUS SEED EXTRACTS BY FERMENTATION AND ENZYME TREATMENT” (COREANA COSMETICS, CO., LTD., priority 2008, published 2011).

Tests used:
Assay type in all cases: cell-based
[1] = test system: Human normal fibroblasts; test: Fibroblast proliferation (MTT); settings: positive control 10 ng/ml
Experimental: Human normal fibroblasts were inoculated in a 96-well microplate (1×10^4 cells/well) containing DMEM, followed by culture at 37° C. for 24 hours. The Phaseolus radiatus extract prepared in Comparative Manufacturing Example 1, the Phaseolus radiatus liquor of yeast-fermentation prepared in Comparative Manufacturing Example 2, the Phaseolus radiatus liquor of lactic acid bacterium-fermentation prepared in Comparative Manufacturing Example 3, the Phaseolus radiatus extract of enzyme treatment-yeast fermentation prepared in Comparative Manufacturing Example 4, the Phaseolus radiatus extract of enzyme treatment-lactic acid bacterium fermentation prepared in Comparative Manufacturing Example 5, the Phaseolus radiatus extract of yeast fermentation-enzyme treatment prepared in Manufacturing Example 1 and the Phaseolus radiatus extract of lactic acid bacterium fermentation-enzyme treatment prepared in Manufacturing Example 2 were treated to the experimental group in which the final concentration of the respective extracts or liquors was 1% and medium was replaced with serum-free medium, followed by further culture for 24 hours. […] Particularly, MTT (Sigma, USA) solution (3 mg/ml) was added thereto and then Absorbance at 570 nm was measured using ELISA reader (Molecular Devices, USA). […]

[2] = test system: Human normal fibroblasts; test: Collagen biosynthesis (procollagen type I C-peptide level) in human normal fibroblasts; settings: positive control 250 uM, PICP
Experimental: Human normal fibroblasts were inoculated in a 48-well microplate ([…]) containing DMEM (Dulbecco's Modified Eagle Medium), followed by culture at 37° C. for 24 hours. […] After the culture, supernatant of each well was collected and procollagen type I C-peptide (PICP) level therein was measured using the kit (Takara, Japan) to calculate the amount of collagen newly synthesized. PICP level was calculated as ng/ml. […] The increasing rate of collagen biosynthesis was calculated according to the following Math Figure 1 and the results are shown in Table 2.

[3] = test system: Human skin cells, fibroblasts; test: Alleviation of cell irritation caused by lactic acid (MTT cell survival); settings: lactic acid 0.2% only (comparative control), 12 hours
Experimental: Human skin cells, fibroblasts (KCTC, Korean Collection for Type Culture, Korea), were cultured in T-75 flask (Falcon, USA) until the cell confluency reached 80%. The cells were transferred to a 96-well plate (Falcon, USA) at the density of 3×10^4 cells/well, followed by further culture for 24 hours. After the culture, the cells were observed under microscope if they were completely adhered and well-grown. As a stimulus for skin, lactic acid (0.2%) was used. Particularly, 200 μl of each DMEM supplemented with 0.2% lactic acid and DMEM not-containing lactic acid was added to each well, to which the Phaseolus radiatus extract, the Phaseolus radiatus liquor of yeast-fermentation, the Phaseolus radiatus liquor of lactic acid bacterium-fermentation, the Phaseolus radiatus extract of enzyme treatment-yeast fermentation, the Phaseolus radiatus extract of enzyme treatment-lactic acid bacterium fermentation (Comparative Manufacturing Examples 1-5), and the Phaseolus radiatus extract of fermentation-enzyme treatment (Manufacturing Examples 1 and 2) were added thereto at the concentration of 1.0% (v/v). […] Particularly, MTT (Sigma, USA) solution (3 mg/ml) was added thereto and then Absorbance at 570 nm was measured using ELISA reader (Molecular Devices, USA).

TGF-β
Proliferation rate of fibroblast (%) [1]: 186.6%

O=C1O[C@H]([C@@H](O)CO)C(O)=C1O [Ascorbic acid, ascorbic acid]
Increasing rate of collagen biosynthesis (%) [2]: 72.8%

CC(O)C(=O)O (stereo not drawn) [lactic acid]
Proliferation rate of fibroblast (%) [3]: 0.0%
